This assay concerns the target T1, Lysosomal acid glucosylceramidase (Homo sapiens, UniProt P04062).
T1 sequence (P04062 whole entry): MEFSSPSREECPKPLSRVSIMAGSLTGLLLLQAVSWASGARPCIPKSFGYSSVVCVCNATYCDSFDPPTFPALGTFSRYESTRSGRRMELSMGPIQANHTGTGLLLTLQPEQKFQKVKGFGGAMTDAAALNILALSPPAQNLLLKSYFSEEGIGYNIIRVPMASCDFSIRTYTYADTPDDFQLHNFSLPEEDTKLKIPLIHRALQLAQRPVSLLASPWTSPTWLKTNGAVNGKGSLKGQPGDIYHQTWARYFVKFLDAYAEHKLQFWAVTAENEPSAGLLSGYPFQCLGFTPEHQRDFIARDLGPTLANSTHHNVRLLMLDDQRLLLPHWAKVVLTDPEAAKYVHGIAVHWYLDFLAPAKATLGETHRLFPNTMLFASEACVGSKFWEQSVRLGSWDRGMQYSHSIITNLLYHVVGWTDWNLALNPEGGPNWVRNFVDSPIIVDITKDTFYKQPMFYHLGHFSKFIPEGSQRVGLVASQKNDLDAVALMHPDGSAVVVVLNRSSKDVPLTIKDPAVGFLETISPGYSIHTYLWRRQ
As to the kind of experiment: GC Enzyme Assay. To be noted: pH 5.9; 21 °C.

Broadly, the IC50 is the concentration that gives 50% inhibition. A low value points to greater potency in that assay. By Ki is commonly meant the dissociation constant of the complex between target and ligand, obtained from inhibition or displacement. Low values mean tighter binding, high ones weaker binding.

`CN(c1ccc(C(=O)Nc2nccs2)cc1)S(=O)(=O)c1ccccc1` displayed a 50% inhibitory concentration (IC50) of 34.4 µM and an inhibitory constant (Ki) of 23.4 µM.
As for `O=C(Nc1nccs1)c1ccc(NS(=O)(=O)c2ccc(Cl)cc2)cc1` [4-[(4-chlorobenzene)sulfonamido]-N-(1,3-thiazol-2-yl)benzamide], half-maximal inhibition (IC50) required 1.29 µM and the Ki amounted to 0.556 µM.

These data come from BindingDB's records for doi:10.1073/pnas.0705637104 (Nih, 2007).
